Experimental data as given in patent US20160051514A1, “METHODS FOR TREATMENT OF CARDIOMYOPATHY” (THE BRIGHAM AND WOMEN'S HOSPITAL, INC., priority 2013, published 2016).
“Also recorded” adds a separate entry of the source.

Tests used:
[1] = system: neonatal rat ventricular myocytes expressing 2057del2 plakoglobin; experiment: Immunofluorescence of intercalated disk proteins in neonatal rat ventricular myocytes; format: cell-based
Experimental: Neonatal rat ventricular myocyte isolation and culture, stretch protocols: Primary cardiac myocyte cultures were prepared from ventricles of 1-day-old Wistar rat pups (Charles River) as previously described.^9 Cells were plated on collagen-coated plastic chamber slides at a density of […] cells/cm^2 and grown for 4 days prior to experimentation. In selected experiments, monolayers grown on collagen--coated silicone membranes were subjected to linear pulsatile stretch using a custom-designed apparatus as described in previous studies.'° Cells were stretched to 110% of resting length at a. frequency of 3 Hz for 1-4 hr in serum-free medium. In other experiments cultures were incubated with reagents including pifitlirin A (5 μM, 1 hr) and SB216763 (5 μM, 24 hr) prior to experimentation. All protocols were approved by the Institutional Animal Care and Use Committee (IACUC).
Viral transfection: A recombinant adenoviral construct expressing 2057del2-plakoglobin was created with the ViraPower Adenoviral Expression system (Invitrogen) using the pAd/CMV/V5-DEST vector through LR clonase-mediated recombination. The V5-tag was used to identify the mutant protein and distinguish it from wildtype plakoglobin. Two days post-plating, monolayers were exposed to viral solution (1:130 dilution in serum-free media, 37° C.) for 1 hr after which viral solution was replaced with complete medium in the presence or absence of reagents.
Immunofluoresence staining and microscopy in cultured cells: Cultures were rinsed in serum-free medium and fixed in 4% paraformaldehyde at room temperature for 5 min or in acetone at −20° C. for 10 min. Fixed cells were immunostained with mouse monoclonal anti-plakoglobin (Sigma), anti-N-cadhcrin (Sigma), anti-Cx43 (Millipore), anti-desmopla.kin (Fitzgerald), anti-SAP97 (Santa Cruz Biotechnology) antibodies and anti-Nav1.5 (kindly provided by Dr. Hugues Abriel, University of Bern, Switzerland) antibodies. Specific immunoreactive signal was detected by laser scanning confocal microscopy as previously described.”
Neonatal rat ventricular myocyte isolation, culture, stretch protocols: Primary cardiac myocyte cultures were prepared from ventricles of 1-day-old Wistar rat pups (Charles River) as previously described (36). Cells were plated on collagen-coated plastic chamber slides at a density of 2.4×10^5 cells/cm2 and grown for 4 days prior to experimentation. In selected experiments, monolayers grown on collagen-coated silicone membranes were subjected to linear pulsatile stretch using a custom-designed apparatus as described in previous studies (35). Cells were stretched to 110% of resting length at a frequency of 3 Hz for 1-4 hr in serum-free medium. In other experiments cultures were incubated with reagents including pifithrin A (5 μM, 1 hr) and SB216763 (0.1-10 μM for 12 or 24 hr) prior to experimentation. Vehicle controls (DMSO) were included in all experiments.
Viral transfection: A recombinant adenoviral construct expressing 2057del2 plakoglobin was created with the ViraPower Adenoviral Expression™ system (Invitrogen) using the pAd/CMV/V5-DEST vector through LR clonase-mediated recombination. The V5-tag was used to identify the mutant protein and distinguish it from wildtype plakoglobin. Two days post-plating, monolayers were exposed to viral solution (1:130 dilution in serum-free media, 37° C.) for 1 hr after which viral solution was replaced with complete medium in the presence or absence of reagents. Immunofluorescence staining and microscopy in cultured cells: Cultures were rinsed in serum-free medium and fixed in 4% paraformaldehyde at 25° C. for 5 min or in acetone at −20° C. for 10 min. Fixed cells were immunostained with mouse monoclonal anti-plakoglobin (Sigma), anti-N-cadherin (Sigma), anti-Cx43 (Millipore), anti-desmoplakin (Fitzgerald), anti-SAP97 (Santa Cruz Biotechnology) antibodies and anti-Nav1.5 antibodies (rabbit polyclonal).

[2] = system: neonatal rat ventricular myocytes expressing 2057del2 plakoglobin; experiment: TUNEL assay of myocyte apoptosis; format: cell-based; conditions: cells expressing 2057del2 plakoglobin, SB216763
Description: (§1) TUNEL assay: Apoptotic cells in cultures were detected by terminal deoxynucleotidyl transferase-mediated biotinylated UTP nick end-labeling (TUNEL) assay using the ApopTag™ Fluorescein Direct in Situ Apoptosis Detection Kit (Millipore) as previously described.^9 Nuclei were stained with DAPI, and TUNEL-positive and total nuclei were counted under a laser scanning confocal microscope in 5 fields per chamber.
as §1, with “ApopTag” for “ApopTag™”, “KitTM” for “Kit”, “according to the manufacturer's instructions.” for “as previously described.^9”, “DAPI;” for “DAPI, and”, “chamber or silicone membrane in stretch experiments.” for “chamber.”

[3] = cells expressing 2057del2 plakoglobin, 5 μM, 24 hr
[4] = cells expressing 2057del2 plakoglobin, 5 μM, 24 hr, listed as SAB216763
[5] = cells expressing 2057del2 plakoglobin, exposure for 24 hr

SMILES: Cn1cc(C2=C(c3ccc(Cl)cc3Cl)C(=O)NC2=O)c2ccccc21 [SB216763]
- Disease features (plakoglobin redistribution, gap junction remodeling, cytokine expression, myocyte apoptosis), summary statements [1]: normalized; also recorded: reversed or prevented
- Gap junction remodeling / junctional Cx43 signal [1, 3]: increased junctional signal for Cx43; also recorded: prevented the adverse remodeling of gap junctions
- Subcellular distribution of plakoglobin immunoreactive signal (junctional vs intracellular/nuclear) [1, 3]: prevented the marked change in subcellular distribution of plakoglobin and accumulation of nuclear signal
- Gap junction remodeling / junctional Cx43 signal [1, 4]: blocked
- Subcellular distribution of plakoglobin immunoreactive signal (junctional vs intracellular/nuclear) [1, 4]: prevented redistribution of plakoglobin from junctional to intracellular pools
- Nav1.5 immunoreactive signal [1, 5]: signal levels were restored; also recorded: reversed
- SAP97 immunoreactive signal at the cell surface / cell-cell junctions [1, 5]: a more normal distribution was restored; also recorded: fully reversed
- Cx43 signal at cell-cell junctions in control (non-transfected) cultures ([1]; control cultures, 5 μM, 24 hr): increased the amount of Cx43 signal at cell-cell junctions; also recorded: also increased junctional signal for Cx43
- Concentration of maximal effect in restoring normal cellular distribution of plakoglobin and Cx43 signals ([1]; dose-response 0.1-10 μM for 12 or 24 hours, maximal at 24 hr): 5 µM
- Myocyte apoptosis (TUNEL-positive nuclei) [2]: dramatically reduced the number of TUNEL positive nuclei; also recorded: significantly reduced the mean apoptosis index
- Myocyte apoptosis (TUNEL-positive nuclei) ([2]; listed as SAB216763): totally abolished
